Assay results: patent publication US11001569B2, “6-membered heteroaromatic substituted cyanoindoline derivatives as NIK inhibitors” (Janssen Pharmaceutica NV, priority 2016, dated 2021)
Read-outs that look alike come from different tables or passages of the source.

Key:
[1] = target: recombinant human NF-kappaB-inducing Kinase (NIK/MAP3K14) (Homo sapiens, UniProt Q99558); test: Inhibition of auto-phosphorylation of recombinant human NIK/MAP3K14 activity (AlphaScreen); format: biochemical; settings: 25 microM ATP, averaged over all measurements on all batches
Chain of recombinant human NF-kappaB-inducing Kinase (NIK/MAP3K14) (Q99558 whole entry): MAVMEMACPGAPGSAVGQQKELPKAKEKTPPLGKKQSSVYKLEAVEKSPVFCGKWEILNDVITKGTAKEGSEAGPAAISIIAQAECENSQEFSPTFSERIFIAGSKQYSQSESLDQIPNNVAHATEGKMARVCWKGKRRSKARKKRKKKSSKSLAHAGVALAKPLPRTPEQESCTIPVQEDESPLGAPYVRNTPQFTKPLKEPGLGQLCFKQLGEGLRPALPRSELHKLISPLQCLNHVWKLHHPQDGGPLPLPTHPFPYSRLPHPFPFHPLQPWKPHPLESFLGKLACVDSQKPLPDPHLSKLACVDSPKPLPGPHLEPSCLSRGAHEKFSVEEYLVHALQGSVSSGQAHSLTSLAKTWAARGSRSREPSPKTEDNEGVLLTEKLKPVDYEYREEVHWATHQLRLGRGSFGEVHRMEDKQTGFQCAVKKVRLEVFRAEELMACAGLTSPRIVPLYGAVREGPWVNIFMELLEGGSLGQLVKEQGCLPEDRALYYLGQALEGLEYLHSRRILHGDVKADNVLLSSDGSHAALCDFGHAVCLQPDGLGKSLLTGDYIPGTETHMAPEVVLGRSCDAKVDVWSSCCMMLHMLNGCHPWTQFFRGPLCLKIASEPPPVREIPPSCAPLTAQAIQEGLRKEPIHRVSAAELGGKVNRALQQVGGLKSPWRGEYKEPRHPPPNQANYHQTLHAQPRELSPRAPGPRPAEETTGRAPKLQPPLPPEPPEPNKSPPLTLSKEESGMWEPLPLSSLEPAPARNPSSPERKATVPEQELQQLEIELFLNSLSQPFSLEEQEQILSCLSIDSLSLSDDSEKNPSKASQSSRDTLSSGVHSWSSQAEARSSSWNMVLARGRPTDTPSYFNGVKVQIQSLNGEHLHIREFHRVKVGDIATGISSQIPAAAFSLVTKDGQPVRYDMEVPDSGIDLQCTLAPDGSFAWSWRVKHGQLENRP

[2] = tested on: JJN-3 (NIK translocated) multiple myeloma cells; test: Antiproliferative activity on JJN-3 multiple myeloma cells (CellTiter-Glo); format: cell-based, human; settings: JJN-3 (NIK translocated) cells, 96 hr treatment, averaged values, read-out: JJN-3 Proliferation inhibition (IC50 (nM))
Outline: (§1)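 Cells plated at 15000 (JJN3) or 20000 (KMS12BM) per well and treated 96 h at 37° C, 5% CO2, final DMSO 0.3%, 9-point 1:3 dilutions. Viability by CellTiter-Glo luminescence; time-zero blank subtracted, growth expressed as percent of untreated control.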

[3] = tested on: P-IKKα levels in L363 (NIK translocated multiple myeloma) cells; test: Effect of compounds on P-IKKα levels in L363 cells (Mesoscale sandwich immuno-assay); format: cell-based, human; settings: 2 hr treatment, averaged values, read-out: Inhibition of pIKKα_L-363 (IC50 (nM))
Description: Effect of Compounds on P-IKKα Levels in L363 (NIK Translocated Multiple Myeloma) Cells
All compounds tested were dissolved in DMSO and further dilutions were made in culture medium. Final DMSO concentration was 1% (v/v) in cell assays. The human L363 cells (ATCC) were cultured in RPMI 1640 medium supplemented with GlutaMax and 10% fetal calf serum (PAA). Cells were routinely maintained at densities of 0.2×10^6 cells per ml-1×10^6 cells per ml at 37° C. in a humidified 5% CO2 atmosphere. Cells were passaged twice a week splitting back to obtain the low density. Cells were seeded in 96 well plates (Nunc 167008) at 2×10^6 per ml media in a volume of 75 μl per well plus 25 μl 1 μg/ml recombinant human B-cell activating factor (BAFF/BLyS/TNFSF13B). Seeded cells were incubated at 37° C. in a humidified 5% CO2 atmosphere for 24 hr. Drugs and/or solvents were added (20 μl) to a final volume of 120 μl. Following 2 hr treatment plates were removed from the incubator and cell lysis was achieved by the addition of 30 μl 5× lysis buffer followed by shaking on a plate shaker at 4° C. for 10 min. At the end of this incubation lysed cells were centrifuged at 800×g for 20 min at 4° C. and the lysate was assessed for P-IKK levels by sandwich immuno-assay carried out in anti-rabbit antibody coated Mesoscale plates. Within an experiment, the results for each treatment were the mean of 2 replicate wells. For initial screening purposes, compounds were tested using an 8 point dilution curve (serial 1:3 dilutions). […] The blank incubation value was subtracted from all control and sample values. To determine the IC50 a sigmoidal curve was fitted to the plot of % inhibition of control P-IKKα levels versus Log10 compound concentration.

[4] = tested on: KMS12-BM (NIK WT) multiple myeloma cells; test: Antiproliferative activity on KMS12-BM multiple myeloma cells (CellTiter-Glo); format: cell-based, human; settings: 96 hr treatment, averaged values, read-out: KMS-12 Proliferation inhibition (IC50 (nM))
Outline: as §1

SMILES	melting point [°C]	IC50 [1] [nM]	IC50 ([2]; Homo sapiens, JJN-3, 96 h) [nM]	IC50 ([3]; Homo sapiens, L-363, 2 h) [nM]	IC50 ([4]; Homo sapiens, KMS-12-BM, 96 h) [nM]	IC50 [2] [nM]	IC50 [3] [nM]	IC50 [4] [nM]
CN1CCCC(COc2ncc(Cl)cc2Nc2nccc(-c3cc(C#N)c4c(c3)[C@@](C)(CO)CN4)n2)C1 (single isomer, unassigned) [Compound 55]	204	3.8	–	–	–	69	67.6	1350
CN1CCCC(COc2ncc(Cl)cc2Nc2nccc(-c3cc(C#N)c4c(c3)[C@@](C)(CO)CN4)n2)C1 (single isomer, unassigned) [Compound 56]	126	3.5	–	–	–	7	~7240	~148
CC1(C)CNc2c(C#N)cc(-c3ccnc(Nc4cc(F)cn(CCN5CC(F)C5)c4=O)n3)cc21 [Compound 28i]	235	7.6	–	21.4	–	–	–	–
COCCCc1ccc(Nc2nccc(-c3cc(C#N)c4c(c3)[C@@](C)(CO)CN4)n2)c(OC)n1 [Compound 58]	–	6.9	200	~17	> 10000	–	–	–
COCCOc1nc(P(C)(C)=O)ccc1Nc1nccc(-c2cc(C#N)c3c(c2)[C@@](C)(CO)CN3)n1 [Compound 60]	–	7.2	708	70.8	> 10000	–	–	–
COCCOc1ncc(C2CC2)cc1Nc1nccc(-c2cc(C#N)c3c(c2)[C@@](C)(CO)CN3)n1 [Compound 67]	–	12.3	204	186	> 10000	–	–	–
CC(C)Oc1ncc(C#N)cc1Nc1nccc(-c2cc(C#N)c3c(c2)[C@@](C)(CO)CN3)n1 [Compound 75]	–	9.8	> 10000	18.2	> 10000	–	–	–
CC(C)(CO)Oc1ncc(C#N)cc1Nc1nccc(-c2cc(C#N)c3c(c2)[C@@](C)(CO)CN3)n1 [Compound 78]	–	4.7	589	28.2	> 10000	–	–	–
Cc1cnc(/C=C/C(=O)N(C)C)c(Nc2nccc(-c3cc(C#N)c4c(c3)[C@@](C)(CO)CN4)n2)c1 [Compound 84]	–	5.6	4680	11.8	> 10000	–	–	–
C[C@]1(CO)CNc2c(C#N)cc(-c3ccnc(Nc4cc(C#N)cnc4OC4CC4)n3)cc21 [Compound 85]	–	2.5	372	3	> 10000	–	–	–
CNC(=O)c1cnc(CCC2CC2)c(Nc2nccc(-c3cc(C#N)c4c(c3)[C@@](C)(CO)CN4)n2)c1 [Compound 87]	–	3.8	427	27.5	> 10000	–	–	–
Cc1nc(P(C)(C)=O)c(Cl)cc1Nc1nccc(-c2cc(C#N)c3c(c2)[C@@](C)(CO)CN3)n1 [Compound 90]	–	1.9	5890	32.4	> 10000	–	–	–
Cc1cc(Nc2nccc(-c3cc(C#N)c4c(c3)[C@@](C)(CO)CN4)n2)c(CCC2CC2)nc1P(C)(C)=O [Compound 96]	–	2.2	65	1.1	> 10000	–	–	–
COc1ncccc1Nc1nccc(-c2cc(C#N)c3c(c2)C(C)(C)CN3)n1 [Compound 97]	–	9.8	1820	42.7	> 10000	–	–	–
COCCNc1nc(OC)c(Nc2nccc(-c3cc(C#N)c4c(c3)C(C)(C)CN4)n2)cc1Cl [Compound 98]	–	50.1	832	45.7	> 10000	–	–	–
COc1nc(N(C)C)c(Cl)cc1Nc1nccc(-c2cc(C#N)c3c(c2)C(C)(C)CN3)n1 [Compound 99]	–	123	708	275	> 10000	–	–	–
COCCOc1nc(C2CCOCC2)ncc1Nc1nccc(-c2cc(C#N)c3c(c2)[C@@](C)(CO)CN3)n1 [Compound 141]	–	18.6	741	355	4790	–	–	–
Cc1cc(Nc2ncc(F)c(-c3cc(C#N)c4c(c3)[C@@](C)(CO)CN4)n2)c(C)cn1 [Compound 158]	–	1.6	49	2.3	> 10000	–	–	–
CC1(C)CNc2c(C#N)cc(-c3ccnc(Nc4cc(Cl)cnc4C(=O)N4CCC(O)C4)n3)cc21 (centres unmarked) [Compound 180]	143 to 145	339	–	617	–	–	–	–

Next, values leading:

melting point [°C]	IC50 [1] [nM]	IC50 ([2]; Homo sapiens, JJN-3, 96 h) [nM]	IC50 ([3]; Homo sapiens, L-363, 2 h) [nM]	IC50 ([4]; Homo sapiens, KMS-12-BM, 96 h) [nM]	IC50 [2] [nM]	IC50 [3] [nM]	IC50 [4] [nM]	SMILES
208	0.9	49	4.9	> 10000	–	–	–	Cc1cc(Nc2nccc(-c3cc(C#N)c4c(c3)[C@@](C)(CO)CN4)n2)c(=O)n(CC(C)N2CCOCC2)c1 (mixture of isomers) [Compound 18i]
138	3.4	33	2.1	9120	–	–	–	Cc1cc(Nc2nccc(-c3cc(C#N)c4c(c3)[C@@](C)(CO)CN4)n2)c(=O)n(CC(C)N2CCOCC2)c1 (single isomer, unassigned) [Compound 22i]
136	2.3	–	–	–	30	2.9	> 10000	Cc1cc(Nc2nccc(-c3cc(C#N)c4c(c3)[C@@](C)(CO)CN4)n2)c(=O)n(CC(C)N2CCOCC2)c1 (single isomer, unassigned) [Compound 23i]
154	8.5	–	13.8	> 10000	135	–	–	Cc1cnc(OCC2COCCN2C)c(Nc2nccc(-c3cc(C#N)c4c(c3)[C@@](C)(CO)CN4)n2)c1 (single isomer, unassigned) [Compound 148]
146	8.9	–	–	–	29	7.8	> 10000	Cc1cnc(OCC2COCCN2C)c(Nc2nccc(-c3cc(C#N)c4c(c3)[C@@](C)(CO)CN4)n2)c1 (single isomer, unassigned) [Compound 149]
140	14.1	–	–	–	–	85.1	–	Cc1cnc(OCC2CN(C)CCO2)c(Nc2nccc(-c3cc(C#N)c4c(c3)[C@@](C)(CO)CN4)n2)c1 (single isomer, unassigned) [Compound 152]
276	4.6	–	14.5	–	–	–	–	Cc1cc(Nc2ncnc(-c3cc(C#N)c4c(c3)[C@@](C)(CO)CN4)n2)c(=O)n(C)c1 [Compound 30i]
–	3.9	98	~20	5130	–	–	–	Cc1cnc(CCC2CC2)c(Nc2nccc(-c3cc(C#N)c4c(c3)[C@@](C)(CO)CN4)n2)c1 [Compound 68]
–	3.7	525	38.9	> 10000	–	–	–	Cc1cnc(CCC(=O)N(C)C)c(Nc2nccc(-c3cc(C#N)c4c(c3)[C@@](C)(CO)CN4)n2)c1 [Compound 80]
–	4.8	427	12	> 10000	–	–	–	COc1nc(C2CCOCC2)ncc1Nc1nccc(-c2cc(C#N)c3c(c2)[C@@](C)(CO)CN3)n1 [Compound 140]
–	28.2	417	46.8	> 10000	–	–	–	COc1nc(CC(C)C)c(Nc2nccc(-c3cc(C#N)c4c(c3)[C@@](C)(CO)CN4)n2)cc1C [Compound 161]
–	1.3	117	6.2	> 10000	–	–	–	CNC(=O)c1cc(Nc2nccc(-c3cc(C#N)c4c(c3)[C@@](C)(CO)CN4)n2)c(C)cn1 [Compound 165]
150	25.7	–	229	–	–	–	–	Cc1ncc(C(=O)N2CCN(C)CC2)cc1Nc1nccc(-c2cc(C#N)c3c(c2)[C@@](C)(CO)CN3)n1 [Compound 166]
–	4.1	26	3.9	~2190	–	–	–	Cc1cc(Nc2nccc(-c3cc(C#N)c4c(c3)[C@@](C)(CO)CN4)n2)c(C)nc1OC1CCN(C)CC1 [Compound 172]
199	6.5	–	4	–	–	–	–	Cc1cc(Nc2nccc(-c3cc(C#N)c4c(c3)[C@@](C)(CO)CN4)n2)c(C)nc1OC1CCOCC1 [Compound 174]
